ChEMBL document CHEMBL1158022, “Norpregnane glycosides from a Thai soft coral, Scleronephthya pallida” (J Nat Prod, 1999)
≈ marks a conversion by molar mass, not a printed value.

Legend:
Plasmodium falciparum = test: Antimalarial activity against multidrug-resistant Plasmodium falciparum K1 by [3H]hypoxanthine uptake; assay type: functional, organism-based
[1] = Cytotoxicity against BCA1 cells by SRB assay; assay type: functional; details: read-out: ED50 (the source's name)

Row | Compound | EC50 (Plasmodium falciparum; Plasmodium falciparum, K1, read-out: EC50) [µg/mL] | EC50 [1] [µg/mL] | EC50 (Plasmodium falciparum) [×10⁻⁷ g/ml]
1 | C=C[C@H]1CC[C@H]2[C@@H]3CCc4cc(O[C@H]5O[C@H](C)[C@H](O)[C@H](O)[C@H]5O)ccc4[C@H]3CC[C@]12C | 1.5 (≈ 3.5 µM) | 10 (≈ 23.3 µM) | 
2 | CCN(CC)CCCC(C)Nc1ccnc2cc(Cl)ccc12.O=P(O)(O)O.O=P(O)(O)O (stereo not drawn) [CHLOROQUINE PHOSPHATE] |  |  | 1.6
